Measured values reported in ChEMBL document CHEMBL5523719, “Structure-activity relationship study of new carbazole sulfonamide derivatives as anticancer agents with dual-target mechanism” (Eur J Med Chem, 2024).
The source made the active and inactive calls. The calls are words filed in the database; no cut-off is given here.

Key:
MCF7 [1] = experiment: Induction of apoptosis in human MCF7 cells assessed as necrotic cells at 12.5 nM measured after 48 hrs by AnnexinV/PI double staining assays (reference value: 0.89%); format: functional
MDA-MB-231 = experiment: Antiproliferation activity against human MDA-MB-231 cells measured after 72 hrs incubation by MTT assay; format: functional, cell-based; conditions: MDA-MB-231, 72 h
[2] = target: DNA topoisomerase 2-alpha (Homo sapiens) (UniProt P11388); experiment: Inhibition of human DNA topoisomerase 2 assessed as relaxation of supercoiled pBR322 DNA as substrate at 200 uM incubated for 30 mins by gel staining based electrophoresis analysis
Sequence of DNA topoisomerase 2-alpha (Homo sapiens) (P11388 whole entry): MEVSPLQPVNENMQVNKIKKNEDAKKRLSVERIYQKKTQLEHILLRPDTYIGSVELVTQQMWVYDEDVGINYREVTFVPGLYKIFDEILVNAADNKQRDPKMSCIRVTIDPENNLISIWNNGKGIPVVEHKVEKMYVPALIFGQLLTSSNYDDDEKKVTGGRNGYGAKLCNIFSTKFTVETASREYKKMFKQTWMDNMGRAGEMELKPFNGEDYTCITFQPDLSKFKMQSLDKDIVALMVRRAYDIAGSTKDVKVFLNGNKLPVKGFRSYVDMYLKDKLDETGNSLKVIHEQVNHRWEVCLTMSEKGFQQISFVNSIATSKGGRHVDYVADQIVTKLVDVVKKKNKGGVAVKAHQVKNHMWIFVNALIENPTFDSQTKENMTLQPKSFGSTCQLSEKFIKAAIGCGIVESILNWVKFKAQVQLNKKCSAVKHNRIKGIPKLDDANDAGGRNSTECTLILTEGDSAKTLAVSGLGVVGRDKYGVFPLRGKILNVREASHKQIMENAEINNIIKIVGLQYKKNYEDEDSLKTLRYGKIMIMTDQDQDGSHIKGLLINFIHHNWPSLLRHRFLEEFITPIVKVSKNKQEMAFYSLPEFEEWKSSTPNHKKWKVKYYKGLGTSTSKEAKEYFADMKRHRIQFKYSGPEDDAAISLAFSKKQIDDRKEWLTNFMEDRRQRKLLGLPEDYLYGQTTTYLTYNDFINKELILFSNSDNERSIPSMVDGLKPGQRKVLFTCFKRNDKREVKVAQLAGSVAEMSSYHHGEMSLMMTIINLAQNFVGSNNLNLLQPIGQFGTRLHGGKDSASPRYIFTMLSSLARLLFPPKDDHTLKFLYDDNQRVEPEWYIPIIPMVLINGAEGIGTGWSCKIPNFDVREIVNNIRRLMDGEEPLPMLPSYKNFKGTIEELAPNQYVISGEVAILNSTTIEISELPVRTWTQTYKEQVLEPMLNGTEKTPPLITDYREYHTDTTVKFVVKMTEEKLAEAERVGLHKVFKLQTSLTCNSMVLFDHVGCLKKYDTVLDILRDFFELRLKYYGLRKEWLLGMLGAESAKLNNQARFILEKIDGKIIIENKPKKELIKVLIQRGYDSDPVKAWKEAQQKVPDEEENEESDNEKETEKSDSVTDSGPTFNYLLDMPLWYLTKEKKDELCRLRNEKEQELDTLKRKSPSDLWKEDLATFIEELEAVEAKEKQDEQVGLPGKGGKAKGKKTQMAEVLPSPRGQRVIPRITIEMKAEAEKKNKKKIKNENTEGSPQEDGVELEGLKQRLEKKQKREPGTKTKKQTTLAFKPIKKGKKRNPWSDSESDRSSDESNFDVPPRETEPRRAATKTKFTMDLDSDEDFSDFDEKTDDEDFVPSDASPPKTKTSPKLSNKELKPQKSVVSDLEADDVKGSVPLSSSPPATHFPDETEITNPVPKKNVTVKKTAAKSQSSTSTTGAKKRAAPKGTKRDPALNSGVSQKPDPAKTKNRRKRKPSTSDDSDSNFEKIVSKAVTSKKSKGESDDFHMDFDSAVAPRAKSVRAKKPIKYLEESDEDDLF

MCF7 [3] = experiment: Induction of cell cycle arrest in human MCF7 cells assessed as accumulation of cells at G0/G1 phase at 500 nM measured after 24 hrs by flow cytometry (reference value: 61.73%); format: functional
MCF7 [4] = experiment: Induction of apoptosis in human MCF7 cells assessed as multinuclear cells at 5 nM measured after 24 hrs by fluorescent microscopy; format: functional
KB = experiment: Antiproliferation activity against human KB cells measured after 72 hrs incubation by MTT assay; format: functional, cell-based
MCF7 [5] = experiment: Induction of apoptosis in human MCF7 cells assessed as karyolysis at 1 nM measured after 24 hrs by fluorescent microscopy; format: functional, cell-based
MCF7 [6] = experiment: Induction of apoptosis in human MCF7 cells assessed as necrotic cells at 6.25 nM measured after 48 hrs by AnnexinV/PI double staining assays (reference value: 0.89%); format: functional
Tubulin (Homo sapiens) [7] = target: T1, Tubulin (Homo sapiens) (UniProt P68371+Q9H4B7+P0DPH7+P68366+Q13509+Q71U36+P04350+Q3ZCM7+P07437+P68363+Q9BQE3+Q6PEY2+Q13885+Q9BVA1+Q9BUF5); experiment: Inhibition of microtubule assembly in human HepG2 cells assessed as disrupted microtubule network at 50 uM measured after 24 hrs incubation by anti-alpha-tubulin antibody (green) and Hoechst 33342 (blue) stained nuclei were obtained under microscopy; format: cell-based
MCF7 [8] = experiment: Induction of apoptosis in human MCF7 cells assessed as viable cells at 12.5 nM measured after 48 hrs by AnnexinV/PI double staining assays (reference value: 91.20%); format: functional; conditions: read-out: Activity
NCI-H460 = experiment: Antiproliferation activity against human NCI-H460 cells measured after 72 hrs incubation by MTT assay; format: functional, cell-based; conditions: NCI-H460, 72 h
MCF7 [9] = experiment: Induction of apoptosis in human MCF7 cells assessed as early apoptotic cells at 25 nM measured after 48 hrs by AnnexinV/PI double staining assays (reference value: 5.32%); format: functional
MCF7 [10] = experiment: Induction of cell cycle arrest in human MCF7 cells assessed as accumulation of cells at G0/G1 phase at 25 nM measured after 24 hrs by flow cytometry (reference value: 61.73%); format: functional
HMEC-1 [11] = experiment: Anti-migration activity in human HMEC-1 cells assessed as inhibition of cell migration at 5 nM measured after 48 hrs by Scratching assay; format: functional, cell-based
Tubulin (Homo sapiens) [12] = target: T1, Tubulin (Homo sapiens); experiment: In vitro inhibition of microtubule (unknown origin) assembly at 10 uM; format: protein-complex assay
MCF7 [13] = experiment: Induction of apoptosis in human MCF7 cells assessed as necrotic cells at 25 nM measured after 48 hrs by AnnexinV/PI double staining assays (reference value: 0.89%); format: functional
MCF7 [14] = experiment: Induction of apoptosis in human MCF7 cells assessed as karyopyknosis at 5 nM measured after 24 hrs by fluorescent microscopy; format: functional, cell-based
MCF7 [15] = experiment: Induction of apoptosis in human MCF7 cells assessed as viable cells at 6.25 nM measured after 48 hrs by AnnexinV/PI double staining assays (reference value: 91.20%); format: functional; conditions: read-out: Activity
MCF7 [16] = experiment: Induction of apoptosis in human MCF7 cells assessed as necrotic cells at 50 nM measured after 48 hrs by AnnexinV/PI double staining assays (reference value: 0.89%); format: functional
MCF7 [17] = experiment: Induction of apoptosis in human MCF7 cells assessed as viable cells at 50 nM measured after 48 hrs by AnnexinV/PI double staining assays (reference value: 91.20%); format: functional; conditions: read-out: Activity
MCF7 [18] = experiment: Induction of cell cycle arrest in human MCF7 cells assessed as accumulation of cells at G0/G1 phase at 100 nM measured after 24 hrs by flow cytometry (reference value: 61.73%); format: functional
L02 = experiment: Antiproliferation activity against human L02 cells measured after 72 hrs incubation by MTT assay; format: functional, cell-based; conditions: L02, 72 h
MCF7 [19] = experiment: Induction of cell cycle arrest in human MCF7 cells assessed as increase in phosphorylation of histone H3 at […] by Western blot analysis; format: functional, cell-based; conditions: dose lower 12.5 µM
MCF7 [20] = experiment: Induction of cell cycle arrest in human MCF7 cells assessed as accumulation of cells at G2/M phase at 25 nM measured after 24 hrs by flow cytometry (reference value: 22.84%); format: functional
MCF7 [21] = experiment: Induction of apoptosis in human MCF7 cells assessed as viable cells at 25 nM measured after 48 hrs by AnnexinV/PI double staining assays (reference value: 91.20%); format: functional; conditions: read-out: Activity
HMEC-1 [22] = experiment: Anti-proliferative activity against human HMEC-1 cells measured after 48 hrs; format: functional, cell-based; conditions: HMEC-1, 48 h
MCF7 [23] = experiment: Induction of apoptosis in human MCF7 cells assessed as late apoptotic cells at 50 nM measured after 48 hrs by AnnexinV/PI double staining assays (reference value: 2.60%); format: functional
MCF7 [24] = experiment: Induction of cell cycle arrest in human MCF7 cells assessed as accumulation of cells at G2/M phase at 100 nM measured after 24 hrs by flow cytometry (reference value: 22.84%); format: functional
[25] = target: Tubulin beta (Homo sapiens) (UniProt P68371+Q9H4B7+Q13509+P04350+Q3ZCM7+P07437+Q13885+Q9BVA1+Q9BUF5+A6NNZ2); experiment: Binding affinity to beta-tubulin colchicine binding site in human MCF7 cells assessed as inhibition of EBI-beta-tubulin adduct band formation preincubated for 2 hrs followed by EBI addition measured after 2 hrs by EBI competition based Western blotting analysis; format: cell-based; conditions: dose 12.5-100 nM
MCF7 [26] = experiment: Induction of cell cycle arrest in human MCF7 cells assessed as increase in cyclin B1 protein expression at […] by Western blot analysis; format: functional, cell-based; conditions: dose lower 12.5 µM
Tubulin (Homo sapiens) [27] = target: T1, Tubulin (Homo sapiens); experiment: Inhibition of microtubule assembly in human MCF7 cells assessed as disrupted microtubule network at 50 uM measured after 24 hrs incubation by anti-alpha-tubulin antibody (green) and Hoechst 33342 (blue) stained nuclei were obtained under microscopy; format: cell-based
MCF7 [28] = experiment: Induction of apoptosis in human MCF7 cells assessed as early apoptotic cells at 6.25 nM measured after 48 hrs by AnnexinV/PI double staining assays (reference value: 5.32%); format: functional
NCI/ADR-RES = experiment: Antiproliferation activity against human MCF7/ADR cells measured after 72 hrs incubation by MTT assay; format: functional, cell-based
MCF7 [29] = experiment: Induction of cell cycle arrest in human MCF7 cells assessed as accumulation of cells at G0/G1 phase at 4 nM measured after 24 hrs by flow cytometry (reference value: 61.73%); format: functional
MCF7 [30] = experiment: Induction of cell cycle arrest in human MCF7 cells assessed as accumulation of cells at G2/M phase at 4 nM measured after 24 hrs by flow cytometry (reference value: 22.84%); format: functional

COc1cc(NS(=O)(=O)c2ccc3c(c2)c2ccc(N)cc2n3C)c(OC)cc1Cl
Activity (MCF7 [1]): 0.14%
IC50 (MDA-MB-231): 31.2 nM
inhibition [2]: inactive
Activity (MCF7 [3]): 5.54%
Activity (MCF7 [4]): Active
IC50 (KB): 9.45 nM
Activity (MCF7 [5]): Active
Activity (MCF7 [6]): 0.1%
inhibition (Tubulin (Homo sapiens) [7]): Active
viability at 0.0125 µM (MCF7 [8]): 64.2%
IC50 (NCI-H460): 18 nM
Activity (MCF7 [9]): 46.14%
Activity (MCF7 [10]): 36.18%
inhibition (HMEC-1 [11]): Active
inhibition (Tubulin (Homo sapiens) [12]): Active
Activity (MCF7 [13]): 0.51%
Activity (MCF7 [14]): Active
viability at 0.00625 µM (MCF7 [15]): 76.1%
Activity (MCF7 [16]): 0.08%
viability at 0.05 µM (MCF7 [17]): 34.2%
Activity (MCF7 [18]): 4.32%
IC50 (L02): 18.5 nM
Activity (MCF7 [19]): Dose-Dependent Effect
Activity (MCF7 [20]): 31.9%
viability at 0.025 µM (MCF7 [21]): 39.3%
IC50 (HMEC-1 [22]): 6.42 nM
Activity (MCF7 [23]): 14.69%
Activity (MCF7 [24]): 41.21%
Activity [25]: Active
Activity (MCF7 [26]): Dose-Dependent Effect
inhibition (Tubulin (Homo sapiens) [27]): Active
Activity (MCF7 [28]): 16.87%
IC50 (NCI/ADR-RES): 1.86 nM
Activity (MCF7 [29]): 47.57%
Activity (MCF7 [30]): 23.3%
